Tested on: yeast genes (level of expressed mRNA)
Experiment: DNA chip analysis of expressed mRNA of yeast genes after 2 h culture with a toxic chemical substance
Type: cell-based, Saccharomyces cerevisiae S288C
Details: for The level of expressed mRNA in the presence of chemical substance/ (ratio to absence of chemical substance): stress protein genes, DNA chip
Experimental: Yeast (Saccharomyces cerevtisiae S288C (α SUC2mal mel gap2 CUP1)) were cultured at 25° C. on YPD medium (yeast extract 1%, polypepton 2%, glucose 2%). One of toxic chemical substances was added to the cell at logarithmic growth phase, and the cell was further cultured for two hours. Cell was cultured without any chemical substance in the same condition, and was used as control. Concentrations of the chemical substances were defined to inhibit the growth of the yeast but not lead to death.
After the completion of cultivation, the culture was centrifuged to collect the cells. To the cells, sodium acetate buffer (50 mM sodium acetate, 10 mM EDTA, 1% SDS) was added, and the mixture was shaken at 65° C. for five minutes, followed by returning to room temperature, and obtaining the supernatant, which procedure was repeated two times. To the supernatant, ½ amount of a solution of phenol/chloroform was added, and the mixture was centrifuged to give a supernatant, which was added with an equal amount of chloroform, and the mixture was centrifuged to give a supernatant. To the supernatant, an equal amount of isopropanol containing 0.3 M sodium acetate was added, and the mixture was allowed to stand at room temperature for 30 minutes, after which the mixture was centrifuged to give a sediment of the whole RNAs. Seventy % ethanol was added to the sediment, and the mixture was again centrifuged to give a sediment, which was then dried and dissolved in water. mRNA was isolated from the whole RNAs as followings. In view of the fact that a poly A chain is attached to the 3′ terminus of mRNA, a polynucleotide having a poly T structure which was immobilized on the surface of latex beads was used to trap the mRNA, and then the mRNA was washed and eluted with spine column (Oligotex-dT30<Super>mRNA Purification Kit, Takara). Reverse transcription of the mRNA was conducted with a reverse transcriptase (Super Script II Reverse Transcriptase; catalogue No. 18064-014, GibcoBRL) using fluorescence-labeled nucleotides to give cDNAs that were introduced with Cy3-dUTP or Cy5-dUTP during the reverse transcription.
The labeled cDNAs were dissolved in TE buffer (10 mM Tris-HCl/1 mM EDTA, pH8.0), and the solution was dropped on the DNA chip containing the whole genes of yeast (DNA Chip Research Inc. Japan) so that the cDNAs were hybridized on the DNA chip at 65° C. for over 12 hours. The fluoresces intensity of the DNA chip was read with a scanner, and the ratio relative to the fluorescence intensity resulting from the absence of chemical substance was estimated as the following, which is shown in Tables 1 to 9: [formula]
In the Tables, “Intensity” indicated in the rightmost column is a value of the level of expressed mRNA of each gene in control cells as divided by the average level of the expressions of the whole genes.

**Q.** What does the source list for C[S+](C)[O-] [(15), dimethylsulfoxide]?
**A.** The level of expressed mRNA in the presence of chemical substance/The level of expressed mRNA in the absence of chemical substance (yeast gene YJL073W): 2.6; The level of expressed mRNA in the presence of chemical substance/The level of expressed mRNA in the absence of chemical substance (yeast gene YJL089W): 6.4; The level of expressed mRNA in the presence of chemical substance/ (ratio to absence), gene YJL096W (yeast gene YJL096W, mitochondria-located protein genes, 2 h culture with chemical): 1.0; The level of expressed mRNA in the presence of chemical substance/The level of expressed mRNA in the absence of chemical substance (yeast gene YJL116C): 1.0; The level of expressed mRNA in the presence of chemical substance/ (ratio to absence of chemical substance) (yeast gene YJL158C): 1.7; The level of expressed mRNA in the presence of chemical substance/ (in its absence), gene YJL167W (yeast gene YJL167W, ratio of DNA chip fluorescence intensity to that without chemical substance): 1.6; The level of expressed mRNA in the presence of chemical substance/ (ratio to absence), gene YJL180C (yeast gene YJL180C, mitochondria-located protein genes, 2 h culture with chemical): 0.6; The level of expressed mRNA in the presence of chemical substance/ (in its absence), gene YJL216C (yeast gene YJL216C, ratio of DNA chip fluorescence intensity to that without chemical substance): 1.2; The level of expressed mRNA in the presence of chemical substance/The level of expressed mRNA in the absence of chemical substance (yeast gene YJR004C): 3.2; The level of expressed mRNA in the presence of chemical substance/The level of expressed mRNA in the absence of chemical substance (yeast gene YJR086W): 2.0; The level of expressed mRNA in the presence of chemical substance/ (ratio to absence of chemical substance) (yeast gene YJR090C): 1.6; The level of expressed mRNA in the presence of chemical substance/The level of expressed mRNA in the absence of chemical substance (yeast gene YKL008C): 1.3; The level of expressed mRNA in the presence of chemical substance/The level of expressed mRNA in the absence of chemical substance (yeast gene YKL013C): 1.2; The level of expressed mRNA in the presence of chemical substance/The level of expressed mRNA in the absence of chemical substance (yeast gene YKL039W): 3.1; The level of expressed mRNA in the presence of chemical substance/The level of expressed mRNA in the absence of chemical substance (yeast gene YKL041W): 1.0; The level of expressed mRNA in the presence of chemical substance/The level of expressed mRNA in the absence of chemical substance (yeast gene YKL096W): 2.3; The level of expressed mRNA in the presence of chemical substance/The level of expressed mRNA in the absence of chemical substance (yeast gene YKL139W): 1.0; The level of expressed mRNA in the presence of chemical substance/ (ratio to absence of chemical substance) (yeast gene YKL164C): 1.2; The level of expressed mRNA in the presence of chemical substance/The level of expressed mRNA in the absence of chemical substance (yeast gene YKL165C): 2.1; The level of expressed mRNA in the presence of chemical substance/The level of expressed mRNA in the absence of chemical substance (yeast gene YKL193C): 1.2; The level of expressed mRNA in the presence of chemical substance/ (in its absence), gene YKR009C (yeast gene YKR009C, ratio of DNA chip fluorescence intensity to that without chemical substance): 1.0; The level of expressed mRNA in the presence of chemical substance/The level of expressed mRNA in the absence of chemical substance (yeast gene YKR014C): 1.4; The level of expressed mRNA in the presence of chemical substance/ (in its absence), gene YKR034W (yeast gene YKR034W, ratio of DNA chip fluorescence intensity to that without chemical substance): 1.7; The level of expressed mRNA in the presence of chemical substance/ (ratio to absence of chemical substance) (yeast gene YKR053C): 0.3; The level of expressed mRNA in the presence of chemical substance/ in its absence, gene YKR058W (yeast gene YKR058W, energy system protein genes, 2 h culture with the chemical, ratio to control without chemical): 0.5; The level of expressed mRNA in the presence of chemical substance/ (in its absence), gene YLR006C (yeast gene YLR006C, ratio of DNA chip fluorescence intensity to that without chemical substance): 0.9; The level of expressed mRNA in the presence of chemical substance/ (ratio to absence of chemical substance) (yeast gene YLR006C): 0.9; The level of expressed mRNA in the presence of chemical substance/The level of expressed mRNA in the absence of chemical substance (yeast gene YLR093C): 0.9; The level of expressed mRNA in the presence of chemical substance/The level of expressed mRNA in the absence of chemical substance (yeast gene YLR120C): 2.7; The level of expressed mRNA in the presence of chemical substance/The level of expressed mRNA in the absence of chemical substance (yeast gene YLR136C): 2.1; The level of expressed mRNA in the presence of chemical substance/The level of expressed mRNA in the absence of chemical substance (yeast gene YLR178C): 2.3; The level of expressed mRNA in the presence of chemical substance/The level of expressed mRNA in the absence of chemical substance (yeast gene YLR250W): 2.6; The level of expressed mRNA in the presence of chemical substance/ in its absence, gene YLR295C (yeast gene YLR295C, energy system protein genes, 2 h culture with the chemical, ratio to control without chemical): 0.5; The level of expressed mRNA in the presence of chemical substance/ (ratio to absence), gene YLR295C (yeast gene YLR295C, mitochondria-located protein genes, 2 h culture with chemical): 0.5; The level of expressed mRNA in the presence of chemical substance/The level of expressed mRNA in the absence of chemical substance (yeast gene YLR327C): 0.8; The level of expressed mRNA in the presence of chemical substance/ (in its absence), gene YLR351C (yeast gene YLR351C, ratio of DNA chip fluorescence intensity to that without chemical substance): 1.2; The level of expressed mRNA in the presence of chemical substance/The level of expressed mRNA in the absence of chemical substance (yeast gene YLR356W): 2.8; The level of expressed mRNA in the presence of chemical substance/The level of expressed mRNA in the absence of chemical substance (yeast gene YLR362W): 1.3; The level of expressed mRNA in the presence of chemical substance/ (in its absence), gene YLR375W (yeast gene YLR375W, ratio of DNA chip fluorescence intensity to that without chemical substance): 1.3; The level of expressed mRNA in the presence of chemical substance/The level of expressed mRNA in the absence of chemical substance (yeast gene YLR391W): 3.9; The level of expressed mRNA in the presence of chemical substance/The level of expressed mRNA in the absence of chemical substance (yeast gene YLR429W): 1.5; The level of expressed mRNA in the presence of chemical substance/ in its absence, gene YML129C (yeast gene YML129C, energy system protein genes, 2 h culture with the chemical, ratio to control without chemical): 1.1; The level of expressed mRNA in the presence of chemical substance/ (ratio to absence), gene YML129C (yeast gene YML129C, mitochondria-located protein genes, 2 h culture with chemical): 1.1; The level of expressed mRNA in the presence of chemical substance/The level of expressed mRNA in the absence of chemical substance (yeast gene YMR004W): 1.3; The level of expressed mRNA in the presence of chemical substance/ (ratio to absence), gene YMR023C (yeast gene YMR023C, mitochondria-located protein genes, 2 h culture with chemical): 0.7; The level of expressed mRNA in the presence of chemical substance/The level of expressed mRNA in the absence of chemical substance (yeast gene YMR094W): 6.6; The level of expressed mRNA in the presence of chemical substance/The level of expressed mRNA in the absence of chemical substance (yeast gene YMR104C): 2.5; The level of expressed mRNA in the presence of chemical substance/ (ratio to absence of chemical substance) (yeast gene YMR186W): 1.3; The level of expressed mRNA in the presence of chemical substance/The level of expressed mRNA in the absence of chemical substance (yeast gene YMR219W): 1.7; The level of expressed mRNA in the presence of chemical substance/The level of expressed mRNA in the absence of chemical substance (yeast gene YMR226C): 2.0; The level of expressed mRNA in the presence of chemical substance/ in its absence, gene YMR267W (yeast gene YMR267W, energy system protein genes, 2 h culture with the chemical, ratio to control without chemical): 0.9; The level of expressed mRNA in the presence of chemical substance/ (ratio to absence), gene YMR267W (yeast gene YMR267W, mitochondria-located protein genes, 2 h culture with chemical): 0.9; The level of expressed mRNA in the presence of chemical substance/ in its absence, gene YMR267W (yeast gene YMR267W, ratio of DNA chip fluorescence intensity to that without chemical substance): 0.9; The level of expressed mRNA in the presence of chemical substance/The level of expressed mRNA in the absence of chemical substance (yeast gene YMR275C): 1.7; The level of expressed mRNA in the presence of chemical substance/The level of expressed mRNA in the absence of chemical substance (yeast gene YMR276W): 3.3; The level of expressed mRNA in the presence of chemical substance/ (in its absence), gene YMR278W (yeast gene YMR278W, ratio of DNA chip fluorescence intensity to that without chemical substance): 1.8; The level of expressed mRNA in the presence of chemical substance/ (in its absence), gene YMR293C (yeast gene YMR293C, ratio of DNA chip fluorescence intensity to that without chemical substance): 0.7

— patent US20050112573A1, “Method of detecting toxic substance” (priority 2001, published 2005)
